Reference: PMC3602154 (PLoS ONE, 2013)
pKi: −log10 of the molar value.

How the values were obtained:
D3 = D3 (Homo sapiens, UniProt P35462); experiment: PDSP radioligand binding, dopamine receptor D3
Description: (§1) [17] and http://pdsp.med.unc.edu/UNC-CH%20Protocol%20Book.pdf.

D1 = D1 (Homo sapiens, UniProt P21728); experiment: PDSP radioligand binding, dopamine receptor D1
Description: as §1

5-ht1e = 5-ht1e (Homo sapiens, UniProt P28566); experiment: PDSP radioligand binding, serotonin receptor 5-HT1E
Description: as §1

CB1 = CB1 (Homo sapiens, UniProt P21554); experiment: PDSP radioligand binding, cannabinoid CB-1
Chain of CB1 (P21554 whole entry, species assumed): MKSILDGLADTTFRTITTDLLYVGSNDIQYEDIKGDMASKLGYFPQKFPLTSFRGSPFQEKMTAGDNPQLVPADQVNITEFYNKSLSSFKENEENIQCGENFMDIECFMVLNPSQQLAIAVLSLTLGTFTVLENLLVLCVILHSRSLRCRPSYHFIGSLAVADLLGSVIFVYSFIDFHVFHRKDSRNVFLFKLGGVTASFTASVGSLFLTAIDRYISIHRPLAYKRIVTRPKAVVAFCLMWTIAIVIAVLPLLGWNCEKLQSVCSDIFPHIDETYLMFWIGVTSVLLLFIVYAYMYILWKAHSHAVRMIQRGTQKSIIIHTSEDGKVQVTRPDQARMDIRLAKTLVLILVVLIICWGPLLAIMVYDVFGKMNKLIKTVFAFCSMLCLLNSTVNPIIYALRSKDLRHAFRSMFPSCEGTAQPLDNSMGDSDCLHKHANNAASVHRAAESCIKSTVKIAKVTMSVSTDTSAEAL
Description: as §1

5-HT2A = 5-HT2A (Homo sapiens, UniProt P28223); experiment: PDSP radioligand binding, serotonin receptor 5-HT2A
Chain of 5-HT2A (P28223 whole entry): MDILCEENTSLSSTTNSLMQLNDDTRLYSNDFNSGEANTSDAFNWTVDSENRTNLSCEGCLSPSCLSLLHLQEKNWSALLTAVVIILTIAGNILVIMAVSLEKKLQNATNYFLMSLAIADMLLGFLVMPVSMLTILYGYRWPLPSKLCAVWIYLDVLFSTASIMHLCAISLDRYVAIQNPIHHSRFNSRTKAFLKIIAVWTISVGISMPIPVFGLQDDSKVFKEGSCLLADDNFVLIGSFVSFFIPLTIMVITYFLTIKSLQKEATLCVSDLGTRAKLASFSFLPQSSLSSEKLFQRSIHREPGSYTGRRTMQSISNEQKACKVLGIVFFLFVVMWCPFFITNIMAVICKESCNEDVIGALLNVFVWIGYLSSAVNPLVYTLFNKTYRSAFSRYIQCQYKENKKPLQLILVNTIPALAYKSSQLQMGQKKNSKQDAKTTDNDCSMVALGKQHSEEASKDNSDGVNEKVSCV
Description: as §1

5-HT1A = target: T1, 5-HT1A (Homo sapiens, UniProt P08908); experiment: PDSP radioligand binding, serotonin receptor 5-HT1A
T1 sequence (P08908 1-422): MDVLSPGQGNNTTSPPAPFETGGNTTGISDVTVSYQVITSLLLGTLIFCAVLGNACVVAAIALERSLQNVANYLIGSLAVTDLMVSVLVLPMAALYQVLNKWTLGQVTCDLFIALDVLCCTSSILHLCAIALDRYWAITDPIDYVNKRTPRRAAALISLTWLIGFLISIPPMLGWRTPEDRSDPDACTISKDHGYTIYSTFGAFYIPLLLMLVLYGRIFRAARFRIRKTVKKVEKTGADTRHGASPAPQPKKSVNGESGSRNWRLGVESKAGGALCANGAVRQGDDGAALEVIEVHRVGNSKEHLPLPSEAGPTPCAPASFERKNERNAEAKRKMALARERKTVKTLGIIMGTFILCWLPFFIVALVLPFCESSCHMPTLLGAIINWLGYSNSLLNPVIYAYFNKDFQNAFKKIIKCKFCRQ
Description: as §1

PBR = PBR (Homo sapiens, UniProt P30536); experiment: PDSP radioligand binding, peripheral benzodiazepine receptor
Chain of PBR (P30536 whole entry, species assumed): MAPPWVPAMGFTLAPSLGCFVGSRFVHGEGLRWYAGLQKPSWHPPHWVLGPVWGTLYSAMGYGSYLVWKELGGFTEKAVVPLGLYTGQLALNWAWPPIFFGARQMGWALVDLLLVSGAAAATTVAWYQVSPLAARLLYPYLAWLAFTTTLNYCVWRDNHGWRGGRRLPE
Description: as §1

Alpha1B = target: T2, Alpha1B (Homo sapiens, UniProt P35368); experiment: PDSP radioligand binding, adrenoceptor α1B
T2 sequence (P35368 1-520): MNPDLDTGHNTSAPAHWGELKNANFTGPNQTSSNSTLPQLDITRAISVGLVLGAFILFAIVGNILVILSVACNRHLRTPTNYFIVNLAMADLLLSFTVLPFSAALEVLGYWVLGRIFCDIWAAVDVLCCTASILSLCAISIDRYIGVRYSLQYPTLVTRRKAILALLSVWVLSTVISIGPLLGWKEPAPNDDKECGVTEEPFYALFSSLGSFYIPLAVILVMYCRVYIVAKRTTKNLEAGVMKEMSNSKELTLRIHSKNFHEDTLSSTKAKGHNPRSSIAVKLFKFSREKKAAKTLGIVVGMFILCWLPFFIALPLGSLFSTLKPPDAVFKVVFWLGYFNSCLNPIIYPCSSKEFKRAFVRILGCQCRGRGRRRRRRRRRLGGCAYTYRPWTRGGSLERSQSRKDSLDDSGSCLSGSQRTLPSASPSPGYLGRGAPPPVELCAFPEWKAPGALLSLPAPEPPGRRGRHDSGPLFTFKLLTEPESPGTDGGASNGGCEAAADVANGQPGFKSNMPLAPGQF
Description: as §1

MOR = MOR (Homo sapiens, UniProt P35372); experiment: PDSP radioligand binding, opioid receptor MOR
Description: as §1

5-HT1D = 5-HT1D (Homo sapiens, UniProt P28221); experiment: PDSP radioligand binding, serotonin receptor 5-HT1D
Description: as §1

GABAB = GABAB (Homo sapiens, UniProt Q9UBS5); experiment: PDSP radioligand binding, GABA-B
Description: as §1

A3B2 = A3B2 (Rattus norvegicus, UniProt P04757+P12390); experiment: PDSP radioligand binding, nicotinic receptor α3 ß2
Description: as §1

A3B4 = A3B4 (Rattus norvegicus, UniProt P04757+P12392); experiment: PDSP radioligand binding, nicotinic receptor α3 ß4
Description: as §1

BZP Rat Brain Site = experiment: PDSP radioligand binding, benzodiazepine site on GABA-A; details: Table S1; unit inferred
Description: as §1

A2B4 = A2B4 (Rattus norvegicus, UniProt P12389+P12392); experiment: PDSP radioligand binding, nicotinic receptor α2 ß4
Chain of A2B4 (P12389 28-511): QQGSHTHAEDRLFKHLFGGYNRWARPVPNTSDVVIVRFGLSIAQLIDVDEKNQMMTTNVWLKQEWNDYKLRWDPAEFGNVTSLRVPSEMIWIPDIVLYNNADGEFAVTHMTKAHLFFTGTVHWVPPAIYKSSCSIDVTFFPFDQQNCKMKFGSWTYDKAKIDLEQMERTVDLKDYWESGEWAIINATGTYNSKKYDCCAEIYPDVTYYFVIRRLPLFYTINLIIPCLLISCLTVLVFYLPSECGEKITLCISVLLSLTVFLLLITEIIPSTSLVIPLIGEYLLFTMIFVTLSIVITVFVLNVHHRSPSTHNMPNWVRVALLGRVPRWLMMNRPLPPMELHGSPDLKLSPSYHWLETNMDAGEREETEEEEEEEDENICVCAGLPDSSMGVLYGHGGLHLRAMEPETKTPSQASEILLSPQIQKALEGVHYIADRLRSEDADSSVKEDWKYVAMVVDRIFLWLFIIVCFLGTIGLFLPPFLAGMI
Chain of A2B4 (P12392 21-495): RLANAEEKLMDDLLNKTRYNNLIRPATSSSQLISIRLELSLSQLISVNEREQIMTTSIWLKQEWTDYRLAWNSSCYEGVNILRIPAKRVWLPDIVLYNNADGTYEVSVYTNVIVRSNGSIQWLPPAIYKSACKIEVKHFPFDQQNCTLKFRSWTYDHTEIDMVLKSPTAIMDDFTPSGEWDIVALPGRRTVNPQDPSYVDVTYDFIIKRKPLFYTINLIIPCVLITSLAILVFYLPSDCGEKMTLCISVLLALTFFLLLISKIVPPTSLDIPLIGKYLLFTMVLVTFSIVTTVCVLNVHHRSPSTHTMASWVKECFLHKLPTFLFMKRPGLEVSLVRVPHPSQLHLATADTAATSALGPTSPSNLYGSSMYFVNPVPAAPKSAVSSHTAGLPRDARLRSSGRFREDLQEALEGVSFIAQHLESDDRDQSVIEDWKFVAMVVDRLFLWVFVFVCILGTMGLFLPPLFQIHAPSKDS
Description: as §1

H2 = H2 (Homo sapiens, UniProt P25021); experiment: PDSP radioligand binding, histamine receptor H2
Description: as §1

H4 = H4 (Homo sapiens, UniProt Q9H3N8); experiment: PDSP radioligand binding, histamine receptor H4
Chain of H4 (Q9H3N8 whole entry): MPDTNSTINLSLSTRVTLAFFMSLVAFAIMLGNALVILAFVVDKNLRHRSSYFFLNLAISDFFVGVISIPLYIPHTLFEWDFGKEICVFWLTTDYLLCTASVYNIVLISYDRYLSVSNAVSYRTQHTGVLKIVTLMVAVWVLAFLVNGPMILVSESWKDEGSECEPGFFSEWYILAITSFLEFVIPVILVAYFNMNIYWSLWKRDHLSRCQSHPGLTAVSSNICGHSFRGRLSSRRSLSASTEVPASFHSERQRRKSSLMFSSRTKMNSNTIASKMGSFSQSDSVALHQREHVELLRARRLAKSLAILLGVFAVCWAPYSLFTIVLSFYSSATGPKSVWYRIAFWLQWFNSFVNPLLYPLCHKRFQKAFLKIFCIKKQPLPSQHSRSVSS
Description: as §1

Alpha2C = target: T3, Alpha2C (Homo sapiens, UniProt P18825); experiment: PDSP radioligand binding, adrenoceptor α2C
T3 sequence (P18825 1-462): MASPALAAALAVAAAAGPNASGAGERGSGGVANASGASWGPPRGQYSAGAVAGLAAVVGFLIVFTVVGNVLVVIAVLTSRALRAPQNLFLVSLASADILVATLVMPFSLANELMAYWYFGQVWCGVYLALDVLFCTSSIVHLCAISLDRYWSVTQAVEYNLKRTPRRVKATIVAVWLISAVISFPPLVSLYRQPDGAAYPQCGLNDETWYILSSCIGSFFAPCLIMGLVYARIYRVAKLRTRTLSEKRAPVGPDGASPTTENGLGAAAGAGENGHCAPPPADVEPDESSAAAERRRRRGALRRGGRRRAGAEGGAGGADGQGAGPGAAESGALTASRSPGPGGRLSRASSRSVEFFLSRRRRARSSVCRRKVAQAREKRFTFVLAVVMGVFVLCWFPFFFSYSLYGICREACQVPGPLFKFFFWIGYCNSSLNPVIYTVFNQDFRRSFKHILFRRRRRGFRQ
Description: as §1

A2B2 = A2B2 (Rattus norvegicus, UniProt P12389+P12390); experiment: PDSP radioligand binding, nicotinic receptor α2 ß2
Chain of A2B2 (P12389 28-511): as the sequence (P12389 28-511) above
Chain of A2B2 (P12390 25-500): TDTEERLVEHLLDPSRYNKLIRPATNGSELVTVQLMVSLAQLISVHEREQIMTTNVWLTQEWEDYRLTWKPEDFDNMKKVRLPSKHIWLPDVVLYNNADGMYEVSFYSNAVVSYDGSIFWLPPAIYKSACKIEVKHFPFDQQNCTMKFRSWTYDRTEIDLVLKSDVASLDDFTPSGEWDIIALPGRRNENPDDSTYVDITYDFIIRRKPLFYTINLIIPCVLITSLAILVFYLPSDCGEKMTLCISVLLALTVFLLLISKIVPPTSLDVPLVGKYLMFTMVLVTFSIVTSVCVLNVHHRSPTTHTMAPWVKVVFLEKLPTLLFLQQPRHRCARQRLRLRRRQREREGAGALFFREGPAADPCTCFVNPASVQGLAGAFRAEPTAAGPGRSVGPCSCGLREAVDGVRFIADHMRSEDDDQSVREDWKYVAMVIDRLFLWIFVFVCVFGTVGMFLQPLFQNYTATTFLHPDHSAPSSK
Description: as §1

[1] = target: NET (norepinephrine transporter) (Homo sapiens, UniProt P23975); experiment: PDSP radioligand binding, norepinephrine transporter; details: for inhibition at 10 µM: quadruplicate, read-out: NET Primary Screen inhibition of binding
Description: as §1

A4B2 = A4B2 (Rattus norvegicus, UniProt P09483+P12390); experiment: PDSP nicotinic receptor A4B2**; type: binding
Chain of A4B2 (P09483 31-630): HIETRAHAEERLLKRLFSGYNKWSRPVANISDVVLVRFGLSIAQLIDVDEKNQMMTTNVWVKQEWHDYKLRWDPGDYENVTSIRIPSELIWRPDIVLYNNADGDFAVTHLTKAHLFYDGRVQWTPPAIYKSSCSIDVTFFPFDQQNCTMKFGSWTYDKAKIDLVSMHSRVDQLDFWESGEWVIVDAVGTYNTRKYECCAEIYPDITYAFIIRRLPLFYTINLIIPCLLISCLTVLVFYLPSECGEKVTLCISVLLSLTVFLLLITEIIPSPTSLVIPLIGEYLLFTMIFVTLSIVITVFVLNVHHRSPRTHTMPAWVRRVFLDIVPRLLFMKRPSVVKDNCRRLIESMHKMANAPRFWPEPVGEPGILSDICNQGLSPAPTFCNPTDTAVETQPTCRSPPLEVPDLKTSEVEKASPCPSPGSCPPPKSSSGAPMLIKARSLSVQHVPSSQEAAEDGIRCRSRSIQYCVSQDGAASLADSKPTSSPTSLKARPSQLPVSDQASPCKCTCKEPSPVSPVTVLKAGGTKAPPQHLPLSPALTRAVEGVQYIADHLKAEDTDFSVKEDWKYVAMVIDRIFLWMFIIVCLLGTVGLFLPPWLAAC
Chain of A4B2 (P12390 25-500): as the sequence (P12390 25-500) above
Description: as §1

5-HT6 = 5-HT6 (Homo sapiens, UniProt P50406); experiment: PDSP radioligand binding, serotonin receptor 5-HT6
Description: as §1

Sigma1 = Sigma1 (Homo sapiens, UniProt Q99720); experiment: PDSP radioligand binding, Sigma1
Chain of Sigma1 (Q99720 whole entry): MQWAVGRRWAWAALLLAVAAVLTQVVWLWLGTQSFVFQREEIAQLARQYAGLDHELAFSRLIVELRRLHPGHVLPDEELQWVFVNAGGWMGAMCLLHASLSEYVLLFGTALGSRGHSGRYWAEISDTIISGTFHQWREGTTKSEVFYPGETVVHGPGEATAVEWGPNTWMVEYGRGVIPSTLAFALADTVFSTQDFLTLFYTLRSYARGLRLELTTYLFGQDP
Description: as §1

5-HT1B = 5-HT1B (Homo sapiens, UniProt P28222); experiment: PDSP radioligand binding, serotonin receptor 5-HT1B
Description: as §1

Chain of D1 (P21728 whole entry): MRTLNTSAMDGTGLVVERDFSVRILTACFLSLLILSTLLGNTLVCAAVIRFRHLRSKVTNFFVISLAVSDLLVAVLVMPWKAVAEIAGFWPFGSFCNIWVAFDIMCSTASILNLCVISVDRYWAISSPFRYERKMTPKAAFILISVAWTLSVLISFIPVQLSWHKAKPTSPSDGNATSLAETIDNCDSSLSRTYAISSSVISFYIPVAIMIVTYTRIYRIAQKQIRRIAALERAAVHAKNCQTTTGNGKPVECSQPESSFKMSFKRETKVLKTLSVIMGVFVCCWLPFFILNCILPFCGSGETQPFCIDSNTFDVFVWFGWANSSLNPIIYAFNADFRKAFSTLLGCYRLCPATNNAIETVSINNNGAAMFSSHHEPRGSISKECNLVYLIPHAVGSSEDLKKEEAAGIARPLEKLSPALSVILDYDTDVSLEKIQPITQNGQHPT
Chain of D3 (P35462 whole entry): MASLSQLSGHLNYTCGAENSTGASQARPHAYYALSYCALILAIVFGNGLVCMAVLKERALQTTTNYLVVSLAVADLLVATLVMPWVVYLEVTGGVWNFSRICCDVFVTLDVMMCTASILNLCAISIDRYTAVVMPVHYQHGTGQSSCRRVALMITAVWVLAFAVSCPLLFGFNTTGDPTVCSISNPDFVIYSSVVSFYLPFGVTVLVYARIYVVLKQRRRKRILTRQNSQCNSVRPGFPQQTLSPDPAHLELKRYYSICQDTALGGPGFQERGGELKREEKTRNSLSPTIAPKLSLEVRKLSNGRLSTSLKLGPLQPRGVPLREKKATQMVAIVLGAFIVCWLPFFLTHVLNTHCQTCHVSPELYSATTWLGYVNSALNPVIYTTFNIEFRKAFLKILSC

| SMILES | pKi (D3) | pKi (D1) | pKi (5-ht1e) | pKi (CB1) | pKi (5-HT2A) | pKi (5-HT1A) | pKi (PBR) | pKi (Alpha1B) | pKi (MOR) | pKi (5-HT1D) | pKi (GABAB) | pKi (A3B2) | pKi (A3B4) | pKi (BZP Rat Brain Site) | pKi (A2B4) | pKi (H2) | pKi (H4) | pKi (Alpha2C) | pKi (A2B2) | pKi [1] | further results |
| --- | --- | --- | --- | --- | --- | --- | --- | --- | --- | --- | --- | --- | --- | --- | --- | --- | --- | --- | --- | --- | --- |
| CCNC1(c2cccc(OC)c2)CCCCC1=O (racemic) [Methoxetamine, (RS)-2-(ethylamino)-2-(3-methoxyphenyl)cyclohexanone] | < 5.00 | < 5.00 | < 5.00 | < 5.00 | < 5.00 | < 5.00 | < 5.00 | < 5.00 | < 5.00 | < 5.00 | < 5.00 | < 5.00 | < 5.00 | < 5.00 | < 5.00 | < 5.00 | < 5.00 | < 5.00 | < 5.00 | < 5.00 | inhibition at 10 µM [1]: < 50%; pKi (A4B2): < 5.00; pKi (5-HT6): < 5.00; pKi (Sigma1): < 5.00; inhibition at 10 µM (Sigma1; 10 µM, quadruplicate, read-out: Sigma1 Primary Screen inhibition of binding): < 50%; pKi (5-HT1B): < 5.00 |
| COc1cccc(C2(N3CCCCC3)CCCCC2)c1 [3-MeO-PCP, 1-[1-(3-methoxyphenyl)cyclohexyl]piperidine] | < 5.00 | < 5.00 | < 5.00 | < 5.00 | < 5.00 | < 5.00 | < 5.00 | < 5.00 | < 5.00 | < 5.00 | < 5.00 | < 5.00 | < 5.00 | < 5.00 | < 5.00 | 5.68 | < 5.00 | < 5.00 | < 5.00 | < 5.00 | inhibition at 10 µM [1]: < 50%; pKi (A4B2): < 5.00; pKi (5-HT6): < 5.00; pKi (Sigma1): 7.38; pKi (5-HT1B): < 5.00 |
| COc1ccc(C2(N3CCCCC3)CCCCC2)cc1 [4-MeO-PCP, 1-[1-(4-methoxyphenyl)cyclohexyl]piperidine] | < 5.00 | < 5.00 | < 5.00 | < 5.00 | < 5.00 | < 5.00 | < 5.00 | < 5.00 | < 5.00 | < 5.00 | < 5.00 | < 5.00 | < 5.00 | < 5.00 | < 5.00 | < 5.00 | < 5.00 | < 5.00 | < 5.00 | 6.15 | pKi (A4B2): < 5.00; pKi (5-HT6): < 5.00; pKi (Sigma1): 6.53; pKi (5-HT1B): < 5.00 |
